# Target: T1, human CD73 (Homo sapiens, UniProt P21589)
# T1 sequence (P21589 27-549): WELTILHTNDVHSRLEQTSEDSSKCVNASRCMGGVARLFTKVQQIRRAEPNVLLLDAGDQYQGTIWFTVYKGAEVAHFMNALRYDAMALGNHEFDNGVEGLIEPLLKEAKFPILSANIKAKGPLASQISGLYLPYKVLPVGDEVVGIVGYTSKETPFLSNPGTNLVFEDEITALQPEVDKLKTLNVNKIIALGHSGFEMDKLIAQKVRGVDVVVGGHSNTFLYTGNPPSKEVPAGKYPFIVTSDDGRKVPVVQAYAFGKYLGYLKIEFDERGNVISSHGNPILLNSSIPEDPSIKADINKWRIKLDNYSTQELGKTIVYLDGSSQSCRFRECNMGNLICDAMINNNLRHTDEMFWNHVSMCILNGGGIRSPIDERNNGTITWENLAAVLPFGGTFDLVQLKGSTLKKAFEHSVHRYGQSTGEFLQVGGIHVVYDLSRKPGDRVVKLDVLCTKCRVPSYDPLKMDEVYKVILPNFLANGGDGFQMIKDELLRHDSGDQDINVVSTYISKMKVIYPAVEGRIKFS
# Assay: Inhibition of Ecto-5′-nucleotidase (CD73) activity in CHO-CD73 cells, phosphate release from AMP
# Format: cell-based
# Conditions: CHO-K1 cells stably transfected with human CD73; 25 μM AMP; 50 minutes, 37° C.; read-out: Potency: CD73 IC50
row,SMILES,IC50 [nM]
1,N#Cc1ccc(Cn2nccc2-c2cnc3cnn(-c4ccc5cn[nH]c5c4)c3c2)nc1 [Example 179],> 1000
2,N#Cc1ccc(Cn2nccc2-c2cc(F)c3nnn(-c4ccc5[nH]c(=O)[nH]c5c4)c3c2)c(CN2CCC2C(=O)O)c1 (stereo not shown) [Example 285],> 1000
3,COc1cc(F)ccc1Cn1nccc1-c1cc(F)c2nnn(-c3ccc4[nH]c(=O)[nH]c4c3)c2c1 [Example 236],> 1000
4,c1cc(-c2ccc3nnn(-c4ccc5cn[nH]c5c4)c3c2)n(CC2CC2)n1 [Example 47],> 1000
5,N#Cc1ccc(Cn2nccc2-c2cc(F)c3nnn(-c4ccc5nc[nH]c5c4)c3c2)cc1 [Example 120],> 1000
6,Cc1cc(F)cnc1Cn1nccc1-c1cc(F)c2nnn(-c3ccc4cn[nH]c4c3)c2c1 [Example 88],> 1000
7,Fc1cc(-c2ccnn2C2CCCOC2)cc2c1nnn2-c1ccc2cn[nH]c2c1 (stereo not shown) [Example 373],> 1000
8,CC(C)(O)c1cc(C#N)ccc1Cn1nccc1-c1cc(F)c2nnn(-c3ccc4[nH]c(=O)[nH]c4c3)c2c1 [Example 312],> 1000
9,N#Cc1ccc(Cn2nccc2-c2cc(F)c3c(N)nn(-c4ccc5[nH]c(=O)[nH]c5c4)c3c2)cc1 [Example 175],> 1000
10,N#Cc1ccc(Cn2nccc2-c2cc(F)c3nnn(-c4ccc5c(COCCO)n[nH]c5c4)c3c2)cc1 [Example 355],> 1000
11,Cc1cnc(Cn2nccc2-c2cc(F)c3nnn(-c4ccc5cn[nH]c5c4)c3c2)c(F)c1 [Example 87],> 1000
12,O=c1[nH]c2ccc(-n3nnc4c(F)cc(-c5ccnn5CCc5ccccc5Cl)cc43)cc2[nH]1 [Example 221],> 1000
13,O=c1[nH]c2ccc(-n3nnc4cnc(-c5ccnn5-c5cccc(F)c5)cc43)cc2[nH]1 [Example 196],> 1000
14,Fc1cccnc1Cn1nccc1-c1ccc2nnn(-c3ccc4cn[nH]c4c3)c2c1 [Example 98],> 1000
15,O=c1[nH]c2ccc(-n3nnc4c(F)cc(-c5ccnn5Cc5ccc6c(c5)OC(F)(F)O6)cc43)cc2[nH]1 [Example 233],> 1000
16,CC(c1ccccc1)n1nccc1-c1cc(F)c2nnn(-c3ccc4cn[nH]c4c3)c2c1 (stereo not shown) [Example 71],> 1000
17,Fc1cc2nnn(-c3ccc4cn[nH]c4c3)c2cc1-c1ccnn1Cc1ccccc1 [Example 136],> 1000
18,O=c1[nH]c2cc(-n3nnc4c(F)cc(-c5ccnn5Cc5ccc(Cl)cc5Cl)cc43)ccc2o1 [Example 159],> 1000
19,Cc1cc2nnn(-c3ccc4cn[nH]c4c3)c2cc1-c1ccnn1C(C)c1ccc(Cl)cn1 (stereo not shown) [Example 399],> 1000
20,CC(O)c1cc(C#N)ccc1Cn1nccc1-c1cc(F)c2nnn(-c3ccc4[nH]c(=O)[nH]c4c3)c2c1 (stereo not shown) [Example 313],100 to 1000

row,SMILES,IC50 [nM]
1,COc1ccc(Cn2nccc2-c2cc(F)c3nnn(-c4ccc5[nH]c(=O)[nH]c5c4)c3c2)c(Cl)c1 [Example 246],100 to 1000
2,N#Cc1ccc(Cn2nccc2-c2cc3c(nnn3-c3ccc4[nH]c(=O)[nH]c4c3)c(=O)[nH]2)cc1 [Example 359],100 to 1000
3,N#Cc1ccc(Cn2ncc(Cl)c2-c2ccc3nnn(-c4ccc5[nH]c(=O)[nH]c5c4)c3c2)cc1 [Example 323],100 to 1000
4,N#Cc1ccc(Cn2nccc2-c2cc3c(cn2)nnn3-c2ccc3[nH]c(=O)[nH]c3c2)nc1 [Example 178],100 to 1000
5,O=c1[nH]c2ccc(-n3nnc4c(F)cc(-c5ccnn5Cc5ccc(Cl)cn5)cc43)cc2[nH]1 [Example 171],100 to 1000
6,CCc1cc(C#N)ccc1Cn1nccc1-c1cc(F)c2nnn(-c3ccc4[nH]c(=O)[nH]c4c3)c2c1 [Example 309],100 to 1000
7,CC(c1ccc(C#N)cc1)n1nccc1-c1cc2c(cc1F)nnn2-c1ccc2cn[nH]c2c1 (stereo not shown) [Example 382],100 to 1000
8,Clc1cccnc1Cn1nccc1-c1cc(Cl)c2nnn(-c3ccc4cn[nH]c4c3)c2c1 [Example 61],> 1000
9,Cc1ccc(Cn2nccc2-c2cc(Cl)c3nnn(-c4ccc5[nH]c(=O)[nH]c5c4)c3c2)c(F)c1F [Example 253],100 to 1000
10,CCc1nn(-c2ccc3cn[nH]c3c2)c2cc(-c3ccnn3Cc3ccc(C#N)cc3)cnc12 [Example 370],> 1000
11,CC(C)(O)c1ccc(Cn2nccc2-c2cc(F)c3nnn(-c4ccc5[nH]c(=O)[nH]c5c4)c3c2)cc1 [Example 183],> 1000
12,FC(F)(F)c1ccc(Cn2nccc2-c2cc(Cl)c3nnn(-c4ccc5cn[nH]c5c4)c3c2)nc1 [Example 108],100 to 1000
13,CC(C)c1ccc(Cn2nccc2-c2cc(Cl)c3nnn(-c4ccc5cn[nH]c5c4)c3c2)cc1 [Example 51],100 to 1000
14,CC(c1ccc(C#N)cc1)n1nccc1-c1cc2c(cc1Cl)nnn2-c1ccc2cn[nH]c2c1 (stereo not shown) [Example 401],100 to 1000
15,N#Cc1ccc(Cn2nc(C(=O)O)cc2-c2cc(F)c3nnn(-c4ccc5[nH]c(=O)[nH]c5c4)c3c2)cc1 [Example 322],> 1000
16,O=c1[nH]c2ccc(-n3nnc4cnc(-c5ccnn5Cc5ccc(Cl)c(F)c5)cc43)cc2[nH]1 [Example 194],100 to 1000
17,N#Cc1cnc(Cn2nccc2-c2cc(F)c3nnn(-c4ccc5[nH]c(=O)[nH]c5c4)c3c2)c(F)c1 [Example 255],100 to 1000
18,Cn1nccc1-c1cc(C#N)ccc1Cn1nccc1-c1cc(F)c2nnn(-c3ccc4[nH]c(=O)[nH]c4c3)c2c1 [Example 303],100 to 1000
19,N#Cc1ccc(Cn2nccc2-c2cc(F)c3nnn(-c4ccc5c(c4)NC(=O)C5)c3c2)cc1 [Example 156],> 1000

# Results, then the molecule that gave them:
row,IC50 [nM],SMILES
1,100 to 1000,N#Cc1ccc(Cn2c(-c3cc(F)c4nnn(-c5ccc6[nH]c(=O)[nH]c6c5)c4c3)c[nH]c2=O)cc1 [Example 333]
2,100 to 1000,N#Cc1ccc(Cn2nccc2-c2cc(Cl)c3nnn(-c4ccc5cn[nH]c5c4)c3c2)nc1 [Example 106]
3,100 to 1000,O=c1[nH]c2ccc(-n3nnc4c(Cl)cc(-c5ccnn5Cc5ccncc5Cl)cc43)cc2[nH]1 [Example 230]
4,100 to 1000,CS(=O)(=O)c1cc(Cl)ccc1Cn1nccc1-c1cc(F)c2nnn(-c3ccc4[nH]c(=O)[nH]c4c3)c2c1 [Example 210]
5,100 to 1000,N#Cc1ccc(Cn2nccc2-c2cc(F)c3nnn(-c4ccc5[nH]c(=O)[nH]c5c4)c3c2)c(CN2CC(C(=O)O)C2)c1 [Example 294]
6,100 to 1000,Clc1cc(-c2ccnn2CC2CCCCO2)cc2c1nnn2-c1ccc2cn[nH]c2c1 (stereo not shown) [Example 94]
7,100 to 1000,O=c1[nH]c2ccc(-n3nnc4c(Cl)cc(-c5ccnn5C5Cc6ccc(Cl)cc6C5)cc43)cc2[nH]1 (stereo not shown) [Example 275]
8,100 to 1000,CC(c1ccc(C#N)cc1)n1nccc1-c1cc(F)c2nnn(-c3ccc4cn[nH]c4c3)c2c1 (stereo not shown) [Example 116]
9,< 100,Cc1ccc(Cn2nccc2-c2cc(F)c3nnn(-c4ccc5cn[nH]c5c4)c3c2)c(Cl)c1 [Example 97]
10,100 to 1000,N#Cc1ccc(Cn2nccc2-c2cc(F)c3nnn(-c4ccc5c(CO)n[nH]c5c4)c3c2)cc1 [Example 344]
11,100 to 1000,N#Cc1ccc(Cn2nccc2-c2cnc3c(F)nn(-c4ccc5[nH]c(=O)[nH]c5c4)c3c2)cc1 [Example 329]
12,100 to 1000,N#Cc1ccc(Cn2nccc2-c2cc(F)c3nnn(-c4ccc5[nH]c(=O)[nH]c5c4)c3c2)c(OC(F)(F)F)c1 [Example 292]
13,100 to 1000,O=c1[nH]c2ccc(-n3nnc4c(F)cc(-c5ccnn5Cc5nc6ccccc6[nH]5)cc43)cc2[nH]1 [Example 243]
14,< 100,Clc1ccc(Cn2nccc2-c2ccn3nnc(-c4ccc5cn[nH]c5c4)c3c2)c(Cl)c1 [Example 126]
15,100 to 1000,CC(c1ccccc1)n1nccc1-c1cc(Cl)c2nnn(-c3ccc4cn[nH]c4c3)c2c1 (stereo not shown) [Example 70]
16,100 to 1000,Clc1ccc(Cn2nccc2-c2cnc3nnn(-c4ccc5cn[nH]c5c4)c3c2)c(Cl)c1 [Example 134]
17,100 to 1000,COc1ccc(Cn2nccc2-c2cc3c(cn2)nnn3-c2ccc3[nH]c(=O)[nH]c3c2)c(F)c1 [Example 247]
18,100 to 1000,CC(c1ccc(C#N)cc1)n1nccc1-c1cc(Cl)c2nnn(-c3ccc4cn[nH]c4c3)c2c1 (stereo not shown) [Example 117]
19,100 to 1000,CC(c1ccc(Cl)cn1)n1nccc1-c1cc2c(cc1F)nnn2-c1ccc2cn[nH]c2c1 (stereo not shown) [Example 383]
20,< 100,Cc1cc(Cl)ccc1Cn1nccc1-c1cc(Cl)c2nnn(-c3ccc4cn[nH]c4c3)c2c1 [Example 96]
21,100 to 1000,Cc1cc(C)cc(-n2nccc2-c2cc(Cl)c3nnn(-c4ccc5[nH]c(=O)[nH]c5c4)c3c2)c1 [Example 241]
22,< 100,Clc1ccc(Cn2nccc2-c2cc(Cl)c3nnn(-c4ccc5cn[nH]c5c4)c3c2)cc1 [Example 44]
23,100 to 1000,N#Cc1ccc(Cn2nccc2-c2cnc3c(Cl)nn(-c4ccc5cn[nH]c5c4)c3c2)cc1 [Example 371]
24,100 to 1000,N#Cc1ccc(Cn2nccc2-c2ccc3nnn(-c4ccc5[nH]c(=O)[nH]c5c4)c3c2)nc1 [Example 204]
25,< 100,N#Cc1ccc(Cn2nccc2-c2cc3c(cc2Cl)nnn3-c2ccc3cn[nH]c3c2)c(F)c1 [Example 400]
26,100 to 1000,COc1ccc(Cn2nccc2-c2cc3c(cn2)nnn3-c2ccc3[nH]c(=O)[nH]c3c2)c(Cl)c1 [Example 248]
27,< 100,Cc1ccc(Cn2nccc2-c2cc3c(cc2F)nnn3-c2ccc3cn[nH]c3c2)nc1 [Example 392]
28,< 100,Cc1ccc(Cn2nccc2-c2cc(Cl)c3nnn(-c4ccc5[nH]c(=O)[nH]c5c4)c3c2)c(F)c1 [Example 224]

# Reference: patent US11931343B2 (ARCUS BIOSCIENCES, INC., priority 2018, dated 2024)
